Data on six compounds can be found in PMC3340011 (Biophysical Chemistry, 2011).

“Also recorded” adds a separate entry of the source.

Test [1] deals with CaM1–148, sites I and II (N-domain). Kind of test: Fluorescence-monitored equilibrium Ca^2+ titration, sites I and II of CaM1–148. It is filed as binding, rat. As to conditions: for ΔΔG2 = ΔG2^app(CaM+CaV1.2p) − ΔG2^app(CaM): CaM1–148, sites I and II; for effect on Ca^2+-binding affinity of N-domain (in words): compared with IQ1644.
Test [2] has as its system CaM1–148, sites III and IV (C-domain). Description: Fluorescence-monitored equilibrium Ca^2+ titration, sites III and IV of CaM1–148. It is filed as binding, rat. As to conditions: for ΔΔG2 = ΔG2^app(CaM+CaV1.2p) − ΔG2^app(CaM): CaM1–148, sites III and IV.
Test [3] deals with CaM1–80, sites I and II. Kind of test: Fluorescence-monitored equilibrium Ca^2+ titration, sites I and II of CaM1–80. It is filed as binding, rat.
For test [4], the target named is CaM76–148 (C-domain of calmodulin) (Rattus norvegicus, UniProt P0DP29). Kind of test: Fluorescence anisotropy titration of Fl-Cav1.2p with CaM C-domain. It is filed as binding. Background: In fluorescence polarisation assays a small probe gives low polarisation when free and higher when bound to something large.
The subject of test [5] is CaM76–148, sites III and IV. It is filed as binding, rat.
The test system of test [6] is CaM1–148, sites III and IV (C-domain). As to conditions: previous study; cited from earlier work.
The subject of test [7] is CaM1–148, sites I and II (N-domain). As to conditions: previous study; cited from earlier work.
The nature of test [8]: Calcium dissociation from fluorescent indicator dye. It is filed as binding.
Test [9] addresses CaM1–80 (N-domain of calmodulin) (Rattus norvegicus, UniProt P0DP29). Kind of test: Fluorescence anisotropy titration of Fl-Cav1.2p with CaM N-domain. It is filed as binding. As to conditions: pre-IQ region, calcium-saturated.
The mark [10] stands for this setting: no peptide, pH 7.4, 22 °C, average ± SD.
Where [11] appears, read: no peptide, 2 μM CaM, pH 7.4, 22 °C, average ± SD.

What is called Kd is the constant that tells how readily two partners part at equilibrium. Turning to `CC[C@H](C)[C@H](NC(=O)[C@H](CC(C)C)NC(=O)[C@H](Cc1ccccc1)NC(=O)[C@@H](NC(=O)[C@H](C)N)[C@@H](C)O)C(=O)N[C@@H](CCC(N)=O)C(=O)N[C@@H](CCC(=O)O)C(=O)N[C@@H](Cc1ccc(O)cc1)C(=O)N[C@@H](Cc1ccccc1)C(=O)N[C@@H](CCCNC(=N)N)C(=O)N[C@@H](CCCCN)C(=O)N[C@@H](Cc1ccccc1)C(=O)N[C@@H](CCCCN)C(=O)N[C@@H](CCCCN)C(=O)N[C@@H](CCCNC(=N)N)C(=O)N[C@@H](CCCCN)C(=O)N[C@@H](CCC(=O)O)C(=O)N[C@@H](CCC(N)=O)C(=O)NCC(=O)N[C@@H](CC(C)C)C(=O)N[C@H](C(=O)NCC(=O)N[C@@H](CCCCN)C(=O)N1CCC[C@H]1C(=O)N[C@@H](CO)C(=O)N[C@@H](CCC(N)=O)C(=O)O)C(C)C` [IQ′1650], the “ΔΔG2 = ΔG2^app(CaM+CaV1.2p) − ΔG2^app(CaM)” value is -1.24 kcal/mol in test [1], -3.63 kcal/mol in test [2], -0.82 kcal/mol in test [3] and -3.35 kcal/mol in test [5]. Besides, the “effect on Ca^2+-binding affinity of N-domain (in words)” value in test [1] is reported as “much weaker effect”. The “fold more favorable affinity for CaM76–148 than CaM1–80” value in test [4] (Ca^2+-saturated) is recorded as “about 100 fold”. Further, in test [4] (Kd (CaM dissociation from Fl-Cav1.2p), calcium-saturated, CaM76–148, 10 mM CaCl2, pH 7.4, 22 °C, limit), the Kd was at most 10 nM.

As for “CaM76–148: C-domain fragment of calmodulin, residues 76–148”, in test [5] (setting [10]), the “ΔG1^app (calcium binding)” value was -5.45 ± 0.51 kcal/mol and the “ΔG2^app (calcium binding)” value was -14.66 ± 0.13 kcal/mol.

With H-ELRAIIKKIWKRTSMKLLDQVV-OH [C1614], the “ΔΔG2 = ΔG2^app(CaM+CaV1.2p) − ΔG2^app(CaM)” value is -1.10 kcal/mol in [1], -2.94 kcal/mol in test [2], -1.15 kcal/mol in test [3] and -2.95 kcal/mol in [5]. Further, the “effect on Ca^2+-binding affinity of N-domain (in words)” value in test [1] is recorded as “much weaker effect”. The “effect on Ca^2+-binding affinity of C-domain of CaM1–148” value in test [6] is reported as “increased the Ca^2+-binding affinity of the C-domain of CaM1–148”. For the same compound, the “effect on Ca^2+-binding affinity of N-domain of CaM1–148” value in test [7] is “there was not an effect on the N-domain”. The “domain preference, (Ca^2+)2-C-domain” value in test [4] (pre-IQ region, calcium-saturated) was “preferred C1614”.

Consider XRhod5F, for which, in [8], the “fold lower Kd for calcium (vs Oregon Green)” value is on record as ~ 20 fold.

With “CaM1–80: N-domain fragment of calmodulin, residues 1–80”, in test [3] (setting [11]), the “ΔG1^app (calcium binding)” value was -5.92 ± 0.38 kcal/mol and the “ΔG2^app (calcium binding)” value was -12.76 ± 0.09 kcal/mol.

H-FNATLFALVRTALRIKTEGNLE-OH [A1588]: the “ΔΔG2 = ΔG2^app(CaM+CaV1.2p) − ΔG2^app(CaM)” value was -2.99 kcal/mol in [1], -1.05 kcal/mol in test [2], -1.55 kcal/mol in test [3] and -0.72 kcal/mol in test [5]. Besides, the “effect on Ca^2+-binding affinity of C-domain (in words)” value in test [2] is reported as “weak effect”. In [9], the “domain preference, (Ca^2+)2-N-domain” value is “bound preferentially to A1588; also recorded: higher affinity for CaM1–80 than for CaM76–148; also recorded: binding the N-domain of CaM more favorably than the C-domain”.
